# Measured values reported in PMC6344527, “Toxicity and possible mechanisms of action of honokiol from Magnolia denudata seeds against four mosquito species” (Scientific Reports, 2019).
# Where two headings read alike, the source gives them in different places.
# How the values were obtained:
# [1] = test system: larvae of four mosquito species (Cx. pipiens pallens, Ae. aegypti, Ae. albopictus, and An. sinensis); test: contact mortality bioassay, range over four mosquito species; assay type: in vivo; conditions: 24 h
# Protocol: (§1) A contact mortality bioassay[25] was used to evaluate the toxicity of all compounds against third-instar larvae of the four mosquito species. Each test compound in methanol was suspended in DW with Triton X-100 (20 µL/L). Groups of 20 mosquito larvae were separately placed into paper cups (270 mL) containing each compound solution (250 mL). […] Negative controls consisted of a methanol–Triton X-100 solution in DW.
# (§2) Treated and control (methanol–Triton X-100 solution only) larvae were maintained under the same conditions as those used for colony maintenance without providing food. Larval mortalities were determined 24 h post-treatment. […] All treatments were performed three times using 20 larvae per replicate.
# (§3) The concentration of the test compounds required to produce 50% AChE inhibitory activity (IC50) was determined using the SAS 9.13 program (Cary: SAS Institute; 2014). Concentration-mortality data were subjected to probit analysis using the SAS 9.13 program. […] Statistical analyses were performed using the SAS 9.13 program. Multiple linear regression and correlation analysis were performed using the SPSS 24 program (Armonk: IBM Corp.; 2016).
# mosquito species larvae = conditions: cited from earlier work
# [2] = test system: third-instar larvae of insecticide-resistant Anopheles sinensis; test: contact mortality bioassay, 24 h exposure; assay type: in vivo; conditions: Table 5, larvae resistant to deltamethrin and temephos, 24 h exposure; for LC50: Anopheles sinensis, read-out: LC50 (mg/L) (95% CI); for Slope ± SE: probit slope
# Protocol: as §1, §2, §3
# [3] = test system: third-instar larvae of insecticide-susceptible Aedes aegypti; test: contact mortality bioassay, 24 h exposure; assay type: in vivo; conditions: for LC50: Aedes aegypti, 24 h; for LC50 / LC90 (mg/L) (95% CI) / LC50 (mg/L) (95% CI): 24 h exposure
# Protocol: as §1, §2, §3
# [4] = test system: third-instar larvae of insecticide-susceptible Aedes albopictus; test: contact mortality bioassay, 24 h exposure; assay type: in vivo; conditions: for LC50: Aedes albopictus, read-out: LC50 (mg/L) (95% CI); for LC50 / LC90 (mg/L) (95% CI) / Slope ± SE: Table 4, 24 h exposure; for Slope ± SE: probit slope
# Protocol: as §1, §2, §3
# [5] = test system: third-instar larvae of insecticide-susceptible Culex pipiens pallens; test: contact mortality bioassay, 24 h exposure; assay type: in vivo; conditions: for LC50: Culex pipiens, 24 h; for LC50 / LC90 (mg/L) (95% CI) / LC50 (mg/L) (95% CI): 24 h exposure
# Protocol: as §1, §2, §3
# [6] = target: acetylcholinesterase (AChE) from third-instar Ae. aegypti larvae (Aedes aegypti, UniProt A4GND7); test: acetylcholinesterase inhibition assay; assay type: biochemical; conditions: based on IC50 values
# acetylcholinesterase (AChE) from third-instar Ae. aegypti larvae, sequence (A4GND7 37-679): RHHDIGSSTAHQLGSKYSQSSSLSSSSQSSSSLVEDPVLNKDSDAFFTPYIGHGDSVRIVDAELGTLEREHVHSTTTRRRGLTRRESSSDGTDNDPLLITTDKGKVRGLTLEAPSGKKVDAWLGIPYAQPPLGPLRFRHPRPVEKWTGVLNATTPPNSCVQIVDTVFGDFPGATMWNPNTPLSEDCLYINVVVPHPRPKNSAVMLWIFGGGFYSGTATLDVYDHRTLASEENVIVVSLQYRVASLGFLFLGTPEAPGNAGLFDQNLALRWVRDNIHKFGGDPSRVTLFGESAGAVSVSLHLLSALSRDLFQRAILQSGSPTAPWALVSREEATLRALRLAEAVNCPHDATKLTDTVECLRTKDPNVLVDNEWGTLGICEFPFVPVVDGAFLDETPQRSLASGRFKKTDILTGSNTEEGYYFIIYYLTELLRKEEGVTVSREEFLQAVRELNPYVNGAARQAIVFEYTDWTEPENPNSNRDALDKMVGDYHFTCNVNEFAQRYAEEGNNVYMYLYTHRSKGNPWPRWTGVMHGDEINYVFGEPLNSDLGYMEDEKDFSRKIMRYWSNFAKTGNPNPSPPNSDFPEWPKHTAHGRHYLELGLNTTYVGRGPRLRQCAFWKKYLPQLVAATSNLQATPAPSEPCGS
# Protocol: The in vitro AChE inhibitory activity of the test compounds was assessed according to the method of Perumalsamy et al.[42]. Third-instar Ae. aegypti larvae were used in all experiments. Whole bodies of 50 larvae were homogenized in 1 mL of ice-cold 0.1 M phosphate buffer (pH 8.0) using a glass tissue homogenizer. After filtering through cheesecloth, the homogenate was centrifuged at 1,000 × g at 4 °C for 5 min. The supernatant was used directly as the enzyme source for AChE. The protein levels were determined using the Bradford Protein Assay Kit (Bio-Rad Laboratories, Hercules, CA, USA) using BSA as the standard. The reaction mixture consisted of 50 µL of the crude enzyme preparation (4.3–4.8 µg protein equivalents), 150 µL of 0.1 M phosphate buffer, 20 µL of 3 mM DTNB in phosphate buffer (pH 7.0), and 1 µL of various concentrations of each test compound in ethanol. The reaction mixture was incubated at 30 °C for 5 min, and 20 µL of 32 mM ATChI was then added to the mixture. After incubation for 30 min, the reaction was terminated by adding 20 µL of 5 mM eserine salicylate. Absorbance was recorded at 412 nm using a VersaMax microplate reader (Molecular Devices, Sunnyvale, CA, USA). […] The results are expressed as the means ± standard errors (SEs) of triplicate samples from three independent experiments.
# as §3
# [7] = Table 3, read-out: LC50 (mg/L) (95% CI)
# [8] = Table 3, listed as Pure palmitic acid
# [9] = Table 2, KS-CP strain, read-out: LC50 (mg/L) (95% CI)
# [10] = Table 2, KS-CP strain, listed as Pure palmitic acid
# [11] = Table 7, structure-activity series, read-out: LC50 (mg/L) (95% CI)
# [12] = Table 7, structure-activity series
# [13] = Table 6, structure-activity series, read-out: LC50 (mg/L) (95% CI)
# [14] = Table 6, structure-activity series
# [15] = Table 3, listed as Pure linoleic acid
structure (smiles),measurement,setting,value
"CCCCCCCCCCCCCCCC(=O)O [Palmitic acid, hexadecanoic acid]",LC50,[1],32.6 to 47.6 µg/mL
same,LC50,mosquito species larvae; flavonoids and fatty acids,34.50 to 42.96 µg/mL
same,LC50,[2],47.6 mg/L
same,LC90 (mg/L) (95% CI),[2],192.8 (148.1–282.2) mg/L
same,Slope ± SE,[2],2.1 ± 0.22
same,LC50,[3]; [7],33.5 mg/L
same,LC90 (mg/L) (95% CI),"[3]; Table 3, listed as Natural palmitic acid",129.3 (99.59–189.2) mg/L
same,LC50 (mg/L) (95% CI),[3]; [8],36.49 (29.30–44.83) mg/L
same,LC90 (mg/L) (95% CI),[3]; [8],204.1 (139.4–378.1) mg/L
same,LC50,[4],36.9 mg/L
same,LC90 (mg/L) (95% CI),[4],135.1 (104.3–196.9) mg/L
same,Slope ± SE,[4],3.1 ± 0.38
same,LC50,[5]; [9],32.6 mg/L
same,LC90 (mg/L) (95% CI),"[5]; Table 2, KS-CP strain, listed as Natural palmitic acid",112.3 (88.96–156.2) mg/L
same,LC50 (mg/L) (95% CI),[5]; [10],34.92 (29.48–40.76) mg/L
same,LC90 (mg/L) (95% CI),[5]; [10],119.3 (94.38–166.4) mg/L
"Oc1ccc(-c2ccc(O)cc2)cc1 [p,p′-Biphenol, p,p′-biphenol]",AChE inhibitory activity (in words),[6],relatively weak AChE inhibitors
same,LC50,[3]; [11],8.34 mg/L
same,LC90 (mg/L) (95% CI),[3]; [12],27.76 (21.50–42.52) mg/L
same,LC50,[5]; [13],7.52 mg/L
same,LC90 (mg/L) (95% CI),[5]; [14],23.97 (18.97–35.16) mg/L
C=CC[C@@]12C=C(OC)C(=O)C=C1O[C@H](c1ccc3c(c1)OCO3)[C@H]2C [burchellin],LC50,mosquito species larvae; neolignans,15.5 µg/mL
"CCc1ccc(O)cc1 [p-Ethylphenol, p-ethylphenol]",AChE inhibitory activity (in words),[6],relatively weak AChE inhibitors
same,LC50,[3]; [11],9.03 mg/L
same,LC90 (mg/L) (95% CI),[3]; [12],30.57 (23.29–48.51) mg/L
same,LC50,[5]; [13],8.3 mg/L
same,LC90 (mg/L) (95% CI),[5]; [14],25.86 (20.36–38.21) mg/L
CCOC(=O)C=Cc1ccc(OC)cc1 [ethyl p-methoxycinnamate],LC50,mosquito species larvae; phenylpropanoids,12.3 to 20.7 µg/mL
"COP(=O)(OC)OC=C(Cl)Cl [Dichlorvos, dichlorvos, reference compound]",AChE inhibitory activity (in words),[6],did not differ significantly
same,LC50,"[3]; read-out: LC50 (mg/L) (95% CI), Table 7, structure-activity series",0.158 mg/L
same,LC90 (mg/L) (95% CI),[3]; [12],0.660 (0.505–0.963) mg/L
same,LC50,"[5]; read-out: LC50 (mg/L) (95% CI), Table 6, structure-activity series",0.103 mg/L
same,LC90 (mg/L) (95% CI),[5]; [14],0.504 (0.380–0.761) mg/L
CC(C)=C1C[C@H]2C(=C(C)C(=O)C1=O)CC[C@]2(C)O [9-oxoneoprocurcumenol],LC50,mosquito species larvae; terpenoids,5.81 µg/mL
CCCCCCCC/C=C\CCCCCCCC(=O)O [oleic acid],LC50,mosquito species larvae; flavonoids and fatty acids,18.07 to 18.45 µg/mL
"CCCCC/C=C\C/C=C\CCCCCCCC(=O)O [Linoleic acid, (9Z,12Z)-9,12-octadecadienoic acid]",LC50,[1],6.97 to 7.5 µg/mL
same,LC50,[2],7.5 mg/L
same,LC90 (mg/L) (95% CI),[2],16.04 (14.05–19.06) mg/L
same,Slope ± SE,[2],3.9 ± 0.56
same,LC50,[3]; [7],7.19 mg/L
same,LC90 (mg/L) (95% CI),"[3]; Table 3, listed as Natural linoleic acid",27.04 (20.52–43.96) mg/L
same,LC50 (mg/L) (95% CI),[3]; [15],7.34 (5.58–8.92) mg/L
same,LC90 (mg/L) (95% CI),[3]; [15],29.70 (23.19–43.79) mg/L
same,times less toxic than temephos,[3]; from 24 h LC50 values,575 times
same,LC50,[4],7.28 mg/L
same,LC90 (mg/L) (95% CI),[4],27.81 (20.95–46.02) mg/L
same,times less toxic than temephos,[4]; from 24 h LC50 values,552 times
same,Slope ± SE,[4],4.4 ± 0.59
same,LC50,[5]; [9],6.97 mg/L
same,LC90 (mg/L) (95% CI),"[5]; Table 2, KS-CP strain, listed as Natural linoleic acid",19.41 (15.94–26.34) mg/L
same,LC50 (mg/L) (95% CI),"[5]; Table 2, KS-CP strain, listed as Pure linoleic acid",8.36 (6.09–10.40) mg/L
same,times less toxic than temephos,[5]; from 24 h LC50 values,430 times
"C=CCc1ccc(O)c(OC)c1 [Eugenol, eugenol]",LC50,[3]; [11],75.8 mg/L
same,LC90 (mg/L) (95% CI),[3]; [12],141.4 (126.3–166.2) mg/L
same,LC50,[5]; [13],74.3 mg/L
same,LC90 (mg/L) (95% CI),[5]; [14],143.3 (127.2–170.3) mg/L
